# What was measured:
# Experiment in all cases: KAM-matrix competition in K562 lysate;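 on 0.001 uM KAM: median log10 fold change of treatment over DMSO control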;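 on 0.01 uM KAM: median log10 fold change of treatment over DMSO control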;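 on 0.1 uM KAM: median log10 fold change of treatment over DMSO control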;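 on 1 uM KAM: median log10 fold change of treatment over DMSO control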;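 on 10 uM KAM: median log10 fold change of treatment over DMSO control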
# Assay type in all cases: binding
# [1] = target: T1, BAZ1B (Homo sapiens, UniProt Q9UIG0);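 on 0.001 uM KAM: median log10 fold change of treatment over DMSO control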;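 on 0.01 uM KAM: median log10 fold change of treatment over DMSO control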;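 on 0.1 uM KAM: median log10 fold change of treatment over DMSO control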;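 on 1 uM KAM: median log10 fold change of treatment over DMSO control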;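 on 10 uM KAM: median log10 fold change of treatment over DMSO control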
# T1 construct: endogenous in cells; host or cells: K562
# T1 sequence (Q9UIG0 1-1483): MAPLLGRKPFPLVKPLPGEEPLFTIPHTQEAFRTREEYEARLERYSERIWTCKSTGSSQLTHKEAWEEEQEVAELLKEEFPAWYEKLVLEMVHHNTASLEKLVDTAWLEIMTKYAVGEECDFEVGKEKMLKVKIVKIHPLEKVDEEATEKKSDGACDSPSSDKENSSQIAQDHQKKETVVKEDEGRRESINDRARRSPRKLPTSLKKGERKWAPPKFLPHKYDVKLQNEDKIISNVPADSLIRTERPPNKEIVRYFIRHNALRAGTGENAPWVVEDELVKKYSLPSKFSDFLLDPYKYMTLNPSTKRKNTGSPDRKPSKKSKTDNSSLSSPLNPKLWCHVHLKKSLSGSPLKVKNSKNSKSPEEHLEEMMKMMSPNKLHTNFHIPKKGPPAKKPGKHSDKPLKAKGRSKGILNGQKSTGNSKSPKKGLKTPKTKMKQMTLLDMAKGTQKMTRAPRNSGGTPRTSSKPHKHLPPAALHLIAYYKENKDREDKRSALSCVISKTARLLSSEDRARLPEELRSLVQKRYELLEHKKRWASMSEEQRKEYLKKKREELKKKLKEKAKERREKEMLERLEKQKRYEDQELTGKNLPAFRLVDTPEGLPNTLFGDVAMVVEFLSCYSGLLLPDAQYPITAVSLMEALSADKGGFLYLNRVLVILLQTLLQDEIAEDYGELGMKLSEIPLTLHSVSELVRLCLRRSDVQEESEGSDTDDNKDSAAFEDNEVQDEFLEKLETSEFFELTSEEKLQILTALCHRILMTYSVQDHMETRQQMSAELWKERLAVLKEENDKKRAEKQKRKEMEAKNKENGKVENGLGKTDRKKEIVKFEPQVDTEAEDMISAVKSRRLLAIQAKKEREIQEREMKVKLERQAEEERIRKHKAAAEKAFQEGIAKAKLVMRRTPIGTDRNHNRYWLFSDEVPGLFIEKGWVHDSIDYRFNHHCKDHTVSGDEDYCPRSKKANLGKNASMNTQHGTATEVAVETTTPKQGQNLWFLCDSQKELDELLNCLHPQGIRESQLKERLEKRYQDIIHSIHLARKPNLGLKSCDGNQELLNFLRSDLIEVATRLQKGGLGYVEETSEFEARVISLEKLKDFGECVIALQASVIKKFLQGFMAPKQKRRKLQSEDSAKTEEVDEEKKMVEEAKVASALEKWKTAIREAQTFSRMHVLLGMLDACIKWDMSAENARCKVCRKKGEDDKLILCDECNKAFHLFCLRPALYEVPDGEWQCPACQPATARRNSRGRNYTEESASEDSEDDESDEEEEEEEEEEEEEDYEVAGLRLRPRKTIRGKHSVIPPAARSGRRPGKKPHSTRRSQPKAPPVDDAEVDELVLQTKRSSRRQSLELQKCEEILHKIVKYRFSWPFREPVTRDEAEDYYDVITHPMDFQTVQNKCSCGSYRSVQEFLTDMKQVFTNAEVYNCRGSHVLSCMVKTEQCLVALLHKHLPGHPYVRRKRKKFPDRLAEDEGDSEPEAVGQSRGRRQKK
# Protocol: (§1) Supplement 12953_2017_125_MOESM1_ESM.zip/MS_Supp Info.xlsx, sheet "KAM" | column: 10 uM KAM; 1 uM KAM; 0.1 uM KAM; 0.01 uM KAM; 0.001 uM KAM; RB50
# [2] = target: T2, MAP2K1 (Homo sapiens, UniProt Q02750)
# T2 construct: endogenous in cells; host or cells: K562
# Protocol: as §1
# [3] = target: T3, TGFBR2 (Homo sapiens, UniProt P37173)
# T3 construct: endogenous in cells; host or cells: K562
# Protocol: as §1
# [4] = target: T4, FGFR3 (Homo sapiens, UniProt P22607)
# T4 construct: endogenous in cells; host or cells: K562
# Protocol: as §1
# [5] = read-out: RB50 (the source's name)
# T3 sequence (P37173 23-567): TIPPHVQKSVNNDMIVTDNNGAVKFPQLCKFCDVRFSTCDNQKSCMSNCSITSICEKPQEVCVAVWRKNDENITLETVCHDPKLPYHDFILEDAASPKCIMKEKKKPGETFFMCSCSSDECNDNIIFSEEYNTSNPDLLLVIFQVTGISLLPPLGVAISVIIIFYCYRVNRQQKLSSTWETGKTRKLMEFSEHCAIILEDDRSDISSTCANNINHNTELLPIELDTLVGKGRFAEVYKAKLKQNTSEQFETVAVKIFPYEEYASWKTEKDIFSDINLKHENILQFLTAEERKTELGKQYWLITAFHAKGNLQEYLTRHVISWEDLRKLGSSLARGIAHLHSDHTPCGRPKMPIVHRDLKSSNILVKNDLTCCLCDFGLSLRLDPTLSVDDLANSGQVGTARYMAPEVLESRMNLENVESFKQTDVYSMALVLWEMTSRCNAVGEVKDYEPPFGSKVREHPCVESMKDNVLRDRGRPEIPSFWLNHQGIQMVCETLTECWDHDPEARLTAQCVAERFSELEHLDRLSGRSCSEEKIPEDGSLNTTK
# T2 sequence (Q02750 whole entry): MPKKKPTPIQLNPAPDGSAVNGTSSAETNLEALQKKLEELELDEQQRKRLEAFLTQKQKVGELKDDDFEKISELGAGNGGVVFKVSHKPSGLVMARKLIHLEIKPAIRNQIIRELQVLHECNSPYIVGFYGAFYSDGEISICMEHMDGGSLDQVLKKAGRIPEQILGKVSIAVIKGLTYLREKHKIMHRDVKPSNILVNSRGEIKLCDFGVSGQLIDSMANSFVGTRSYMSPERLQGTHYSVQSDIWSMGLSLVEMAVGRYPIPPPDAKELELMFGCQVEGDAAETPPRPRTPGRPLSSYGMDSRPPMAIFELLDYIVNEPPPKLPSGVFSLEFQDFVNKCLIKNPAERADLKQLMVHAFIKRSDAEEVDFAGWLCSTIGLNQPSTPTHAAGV
# T4 sequence (P22607 23-806): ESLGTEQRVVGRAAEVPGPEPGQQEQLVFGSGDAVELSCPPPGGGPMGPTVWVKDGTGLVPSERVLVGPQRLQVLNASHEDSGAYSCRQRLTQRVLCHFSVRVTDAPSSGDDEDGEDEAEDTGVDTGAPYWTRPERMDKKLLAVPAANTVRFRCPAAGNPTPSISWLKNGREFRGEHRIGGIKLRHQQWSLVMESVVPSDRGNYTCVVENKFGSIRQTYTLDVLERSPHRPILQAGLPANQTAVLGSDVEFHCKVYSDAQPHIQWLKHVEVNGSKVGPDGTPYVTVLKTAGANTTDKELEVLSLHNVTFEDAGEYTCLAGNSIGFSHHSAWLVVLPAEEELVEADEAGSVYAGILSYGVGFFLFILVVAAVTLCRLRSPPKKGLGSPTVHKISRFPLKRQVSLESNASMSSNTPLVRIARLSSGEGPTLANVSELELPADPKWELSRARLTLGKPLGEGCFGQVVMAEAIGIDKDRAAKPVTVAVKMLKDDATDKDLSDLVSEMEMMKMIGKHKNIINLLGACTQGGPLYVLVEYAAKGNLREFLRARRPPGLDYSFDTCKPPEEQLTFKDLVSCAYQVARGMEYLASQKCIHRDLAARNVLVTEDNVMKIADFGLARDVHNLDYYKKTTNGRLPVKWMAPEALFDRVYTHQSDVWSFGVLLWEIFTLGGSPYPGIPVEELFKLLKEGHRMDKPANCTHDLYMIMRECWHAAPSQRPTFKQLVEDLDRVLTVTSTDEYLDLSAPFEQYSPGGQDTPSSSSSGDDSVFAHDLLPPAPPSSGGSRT
structure (smiles),measurement,setting,value
N#CCc1ccc(Nc2nc(NCCCN)cc(Nc3cc(C4CC4)[nH]n3)n2)cc1 [KAM],IC50,"[1]; KAM 0.001-10 uM, read-out: RB50 (the source's name)",> 10000 nM
same,0.001 uM KAM,[1]; relative to 0 uM KAM = 0,-0.04632
same,0.01 uM KAM,[1]; relative to 0 uM KAM = 0,-0.04267
same,0.1 uM KAM,[1]; relative to 0 uM KAM = 0,-0.03143
same,1 uM KAM,[1]; relative to 0 uM KAM = 0,-0.000154
same,10 uM KAM,[1]; relative to 0 uM KAM = 0,-0.05532
same,median Log10 fold change,[2]; 0.001 uM KAM,-0.01014
same,median Log10 fold change,[2]; 0.01 uM KAM,-0.05282
same,median Log10 fold change,[2]; 0.1 uM KAM,-0.2542
same,median Log10 fold change,[2]; 1 uM KAM,-0.5685
same,median Log10 fold change,[2]; 10 uM KAM,-0.7087
same,IC50,[2]; [5],164 nM
same,median Log10 fold change,[3]; 0.001 uM KAM,0.03003
same,median Log10 fold change,[3]; 0.01 uM KAM,-0.09645
same,median Log10 fold change,[3]; 0.1 uM KAM,-0.3569
same,median Log10 fold change,[3]; 1 uM KAM,-0.3895
same,median Log10 fold change,[3]; 10 uM KAM,-0.4032
same,IC50,[3]; [5],117 nM
same,median Log10 fold change,[4]; 0.001 uM KAM,0.01443
same,median Log10 fold change,[4]; 0.01 uM KAM,0.001015
same,median Log10 fold change,[4]; 0.1 uM KAM,-0.1738
same,median Log10 fold change,[4]; 1 uM KAM,-0.319
same,median Log10 fold change,[4]; 10 uM KAM,-0.3424
same,IC50,[4]; [5],1160 nM

# From article PMC5513037, “Examining the influence of specificity ligands and ATP-competitive ligands on the overall effectiveness of bivalent kinase inhibitors” (Proteome Science, 2017)
